This assay addresses human AMPK (full-length γ1, β1 and α1 subunits) (Homo sapiens (Human), UniProt Q13131+Q9Y478). As to the kind of experiment: AMPK in vitro biochemical assay (33P-based, SAMS peptide, PP2A dephosphorylation). The following applies: for EC50: activation of phosphorylated AMPK, 33P-ATP, SAMS peptide, PP2A treatment, 4-parameter fit; for Emax / Maximum: counts as % of positive control wells (enzyme, allosteric activator or AMP, PP2A and substrate); for Emax: read-out: Maximum. The text has this:
We designed a tricistronic AMPK expression construct that included open reading frames encoding the full-length γ1, β1 and α1 subunits of human AMPK with a ribosome-binding site (RBS) ahead of each coding region and subcloned this into pET-14b expression vector (Novagen, Madison, Wis.) using standard molecular biology techniques. AMPK tricistronic construct was transformed into E. coli BL21-CodonPlus™ (DE3)-RIPL strain (Stratagene) and transformants were selected on LB (Luria-Bertani) agar plates containing ampicillin (100 μg/ml). […] Optical density sample measurements were made on an UltroSpec 2000 spectrophotometer (Pharmacia Biotech) at 600 nm. When the cell density reached ˜0.9 OD, the temperature was reduced to 18° C. and the culture was induced at 18° C. with 0.1 mM Isopropylthiogalactoside (IPTG). […] The cell pellets were aliquoted into four portions, flash frozen in liquid nitrogen and were stored at −80° C. until purification. For purification, frozen cell paste was thawed and resuspended in 50 ml lysis buffer (50 mM Tris, pH 8.0, 150 mM NaCl, 10% glycerol, 2 mM Tris-2-carboxyethyl phosphine (TCEP), 20 mM imidazole and 0.001% Triton X-100). After sonication, insoluble material was removed by centrifugation at 15,000 rpm in a Sorvall® RC5 plus centrifuge for 30 min at 4° C. and the supernatant was loaded onto a 5 ml HisTrap™ HP column (GE Healthcare, Piscataway, N.J.) and washed with five column volumes of lysis buffer. Bound proteins were eluted using an elution buffer containing 300 mM imidazole. Fractions containing AMPK subunits were pooled based on SDS-10% PAGE analysis and dialyzed overnight in dialysis buffer (50 mM Tris, pH 8.0, 150 mM NaCl, 10% glycerol, 2 mM TCEP, and 0.001% Triton X-100). […] The phosphorylated AMPK complex was re-purified on HisTrap™ HP column as before, dialyzed over night in dialysis buffer. The phosphorylated AMPK complex was further purified by gel filtration chromatography with a Superdex 200 HiLoad 16/60 column (GE Healthcare) in SEC buffer (50 mM Tris, pH 8.0, 150 mM NaCl, 10% glycerol, 2 mM TCEP, and 0.001% Triton X-100).
The harvest time (72 hours post infection) was indicated by percent cell viability (to 85-90%) and increased cell diameter (3-4 μm). […] For purification, the cell paste was resuspended in 500 mL lysis buffer (50 mM Tris pH 8.0, 150 mM NaCl, 25 mM imidazole, 10% glycerol, 2 mM MgCl2, 2 mM TCEP+protease inhibitor cocktail. After lysis, cellular debris was removed by centrifugation at 36K×g for 1 hour. The resulting supernatant was filtered at 0.2 micron before applying to a 1 mL nickel charged IMAC column (HisTrap, GE). The bound resin was washed to baseline with 50 CV of 50 mM Tris pH 8.0, 150 mM NaCl, 25 mM imidazole, 10% glycerol, 2 mM MgCl2, 2 mM TCEP before eluting over a 20 CV gradient to 100% with wash buffer containing 500 mM imidazole. Pooled fractions containing PP2A were combined and diluted 10× with 50 mM Tris pH 8.0, 10% glycerol, 1 mM TCEP and applied to a 1 mL AIEX resin (HiTrap QFF, GE). The bound resin was washed with dilution buffer and PP2A was eluted over a 20 CV gradient to 100% 50 mM Tris pH 8.0, 500 mM NaCl, 10% glycerol, 1 mM TCEP and was further diluted 1:1 with 50 mM Tris pH 8.0, 150 mM NaCl, 10% glycerol, and 1 mM TCEP buffer.
The biochemical EC50 (half-maximal concentration required for full activation) of compounds for the activation of AMPK was evaluated by ^33P-based assay using SAMS peptide (commercially available) derived from ACC-1. Twenty μl of phosphorylated AMPK diluted in assay buffer, (50 mM HEPES, 1 mM EGTA, 10 mM MgCl2, 0.25 mM DTT, 0.01% Tween-20, 0.01% BSA (pH 7.5)) was added to 384 well plates containing 1 μL of test compound. Following a fifteen minute room temperature incubation, 10 μL of protein phosphatase PP2A was added to the plate to dephosphorylate pThr172 of AMPK. […] The reaction was terminated after 60 minutes incubation at room temperature by the addition of 15 μL of 2% H3PO4.

Sequence of human AMPK (full-length γ1, β1 and α1 subunits) (Q13131 whole entry): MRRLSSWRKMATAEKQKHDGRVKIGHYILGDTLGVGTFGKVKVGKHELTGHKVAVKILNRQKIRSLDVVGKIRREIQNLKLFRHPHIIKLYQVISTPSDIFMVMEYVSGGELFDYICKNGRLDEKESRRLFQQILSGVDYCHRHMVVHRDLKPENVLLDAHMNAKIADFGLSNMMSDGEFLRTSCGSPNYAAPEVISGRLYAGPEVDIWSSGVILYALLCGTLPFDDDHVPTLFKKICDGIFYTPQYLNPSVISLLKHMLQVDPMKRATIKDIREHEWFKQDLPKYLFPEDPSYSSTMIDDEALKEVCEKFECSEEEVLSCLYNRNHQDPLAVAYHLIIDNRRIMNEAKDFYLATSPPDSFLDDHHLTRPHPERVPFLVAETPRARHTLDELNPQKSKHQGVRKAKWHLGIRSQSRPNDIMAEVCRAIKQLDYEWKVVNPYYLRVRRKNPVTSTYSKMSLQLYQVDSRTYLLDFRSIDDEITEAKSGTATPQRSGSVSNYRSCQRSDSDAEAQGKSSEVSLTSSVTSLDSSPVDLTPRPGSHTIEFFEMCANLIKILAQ
Sequence of human AMPK (full-length γ1, β1 and α1 subunits) (Q9Y478 whole entry): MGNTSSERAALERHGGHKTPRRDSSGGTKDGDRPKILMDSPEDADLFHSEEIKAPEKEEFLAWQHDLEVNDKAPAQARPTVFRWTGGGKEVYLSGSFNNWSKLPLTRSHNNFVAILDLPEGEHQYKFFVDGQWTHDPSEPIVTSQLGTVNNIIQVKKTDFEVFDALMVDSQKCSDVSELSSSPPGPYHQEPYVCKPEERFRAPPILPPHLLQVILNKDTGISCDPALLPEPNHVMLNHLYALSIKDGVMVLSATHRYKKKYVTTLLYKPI
Sequence of human AMPK (full-length γ1, β1 and α1 subunits) (P54619 whole entry partner): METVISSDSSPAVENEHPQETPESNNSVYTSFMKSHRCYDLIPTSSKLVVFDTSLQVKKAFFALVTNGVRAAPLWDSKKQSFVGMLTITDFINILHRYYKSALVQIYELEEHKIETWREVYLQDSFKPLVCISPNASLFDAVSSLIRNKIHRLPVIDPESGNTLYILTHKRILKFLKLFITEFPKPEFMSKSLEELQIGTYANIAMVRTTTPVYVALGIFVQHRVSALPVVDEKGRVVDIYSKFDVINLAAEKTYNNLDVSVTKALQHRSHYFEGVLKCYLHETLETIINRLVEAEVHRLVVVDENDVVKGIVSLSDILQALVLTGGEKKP

Consider `O=C(O)c1c[nH]c2cc(Cl)c(-c3ccc4c(c3)OCC4)cc12` [Example 57, 6-chloro-5-(2,3-dihydrobenzofuran-6-yl)-1H-indole-3-carboxylic acid], for which the EC50 (usually the midpoint of the concentration-response curve) worked out at 64.5 nM and the Emax stood at 107%.

Regarding `COC(C)c1ccc(-c2cc3c(C(=O)O)n[nH]c3cc2Cl)cc1` (centres unmarked) [Example 125, 6-Chloro-5-(4-(1-methoxyethyl)phenyl)-1H-indazole-3-carboxylic acid], the 50% effective concentration (EC50) was 132 nM and the Emax was 90%.

As to `O=C(O)c1c[nH]c2cc(F)c(-c3ccc(C4(CO)CCC4)cc3)cc12` [Example 143, 6-fluoro-5-{4-[1-(hydroxymethyl)cyclobutyl]phenyl}-1H-indole-3-carboxylic acid], it took 17.7 nM to reach a half-maximal effect (EC50) and the Emax stood at 194%.

Consider `O=C(O)c1c[nH]c2cc(F)c(-c3ccc(OCCC4CCCO4)cc3)c(F)c12` (centres unmarked) [Example 191, 4,6-difluoro-5-{4-[2-(tetrahydrofuran-2-yl)ethoxy]phenyl}-1H-indole-3-carboxylic acid], for which a half-maximal effect (EC50) was put at 121 nM and the Emax was determined as 140%.

Turning to `CC(C)(CO)c1ccc(-c2cc3c(C(=O)O)n[nH]c3cc2Cl)cc1` [Example 115, 6-Chloro-5-(4-(1-hydroxy-2-methylpropan-2-yl)phenyl)-1H-indazole-3-carboxylic acid], the EC50 worked out at 27 nM and the Emax is 95%.

On to `O=C(O)c1c[nH]c2cc(Cl)c(-c3cnc(N4CCOCC4)nc3)cc12` [Example 76, 6-chloro-5-[2-(morpholin-4-yl)pyrimidin-5-yl]-1H-indole-3-carboxylic acid], for which the EC50 came out at 271 nM and the Emax came out at 104%.

For `NC(=O)C1(c2ccc(-c3cc4c(C(=O)O)n[nH]c4cc3Cl)cc2)CCC1` [Example 122, 5-(4-(1-Carbamoylcyclobutyl)phenyl)-6-chloro-1H-indazole-3-carboxylic acid], the concentration for a half-maximal effect (EC50) was determined as 160 nM and the Emax came to 75%.

On to `O=C(O)c1c[nH]c2cc(Cl)c(-c3ccc(OCCCN4CCOCC4=O)cc3)cc12` [Example 54, 6-chloro-5-{4-[3-(3-oxomorpholin-4-yl)propoxy]phenyl}-1H-indole-3-carboxylic acid], for which the EC50 was determined as 32.5 nM and the Emax is 74%.

Take `O=C(O)c1c[nH]c2cc(Cl)c(-c3ccc(OCCO)c(F)c3)cc12` [Example 81, 6-chloro-5-[3-fluoro-4-(2-hydroxyethoxy)phenyl]-1H-indole-3-carboxylic acid]: the EC50 amounted to 182 nM and the Emax worked out at 97%.

For the molecule `COc1nc(N2CC[C@@H](O)C2)ccc1-c1cc2c(C(=O)O)c[nH]c2cc1Cl` [Example 185, 6-chloro-5-{6-[(3R)-3-hydroxypyrrolidin-1-yl]-2-methoxypyridin-3-yl}-1H-indole-3-carboxylic acid], the midpoint of the response, the EC50, lay at 2.9 nM and the Emax was 106%.

`O=C(O)c1c[nH]c2cc(F)c(-c3ccc(C4(O)COC4)cc3)c(F)c12` [Example 20, 4,6-difluoro-5-[4-(3-hydroxyoxetan-3-yl)phenyl]-1H-indole-3-carboxylic acid]: the EC50 is 53.6 nM and the Emax was 62%.

With `O=C(O)c1c[nH]c2cc(Cl)c(-c3ccc(C4CCN4)cc3)cc12` (centres unmarked) [Example 63, 5-(4-azetidin-2-yl-phenyl)-6-chloro-1H-indole-3-carboxylic acid], the EC50 was determined as 432 nM and the Emax was 89%.

Consider `O=C(O)c1c[nH]c2cc(Cl)c(-c3ccc(C4CNC4)cc3)cc12` [Example 91, 5-[4-(azetidin-3-yl)phenyl]-6-chloro-1H-indole-3-carboxylic acid], for which the EC50 turned out to be 695 nM and the Emax amounted to 101%.

For the molecule `COC(=O)N1CCC(c2ccc(-c3cc4c(C(=O)O)c[nH]c4cc3Cl)cc2)C1` (racemic) [Example 14, 6-chloro-5-{4-[1-(methoxycarbonyl)pyrrolidin-3-yl]phenyl}-1H-indole-3-carboxylic acid], the concentration for a half-maximal effect (EC50) came to 151 nM and the Emax worked out at 100%.

`O=C(O)c1n[nH]c2cc(Cl)c(-c3ccc(C4CC(O)C4)cc3)cc12` [Example 120, 6-Chloro-5-(4-((1S,3S)-3-hydroxycyclobutyl)phenyl)-1H-indazole-3-carboxylic acid] yielded a Maximum of 88%.

For `Cc1cc(C2(O)CCC2)ccc1-c1cc2c(C(=O)O)c[nH]c2cc1Cl` [Example 40, 6-chloro-5-[4-(1-hydroxycyclobutyl)-2-methylphenyl]-1H-indole-3-carboxylic acid], the EC50 was 821 nM and the Emax came out at 78%.

Take `O=C(O)c1c[nH]c2cc(F)c(-c3ccc(-c4ccccc4O)cc3)cc12` [Example 135, 6-fluoro-5-(2′-hydroxybiphenyl-4-yl)-1H-indole-3-carboxylic acid]: the EC50 is 6.5 nM and the Emax turned out to be 82%.

In turn, `O=C(O)c1c[nH]c2cc(F)c(-c3ccc(C4CCCCO4)cc3)cc12` (single isomer, unassigned) [Example 171, 6-fluoro-5-[4-(tetrahydro-2H-pyran-2-yl)phenyl]-1H-indole-3-carboxylic acid] displayed an EC50 of 32.9 nM and a Maximum of 69.2%.

Take `O=C(O)c1c[nH]c2cc(F)c(-c3ccc(C4CCCO4)cc3)c(F)c12` (centres unmarked) [Example 152, 4,6-difluoro-5-[4-(tetrahydrofuran-2-yl)phenyl]-1H-indole-3-carboxylic acid]: the Emax is 112%.

Regarding `O=C(O)c1c[nH]c2cc(F)c(-c3ccc(OCCCO)cc3)c(F)c12` [Example 28, 4,6-difluoro-5-[4-(3-hydroxypropoxy)phenyl]-1H-indole-3-carboxylic acid], the 50% effective concentration (EC50) amounted to 1080 nM and the Emax worked out at 98%.

`O=C(O)c1c[nH]c2cc(F)c(-c3ccc(C4CCCO4)cc3)c(F)c12` (centres unmarked) [Example 153, 4,6-difluoro-5-[4-(tetrahydrofuran-2-yl)phenyl]-1H-indole-3-carboxylic acid] showed a Maximum of 112.3%.

For the molecule `CC(C)(O)c1ccc(-c2cc3c(C(=O)O)n[nH]c3cc2Cl)cc1` [Example 102, 6-Chloro-5-(4-(2-hydroxypropan-2-yl)phenyl)-1H-indazole-3-carboxylic acid], the concentration for a half-maximal effect (EC50) came to 33.7 nM and the Emax worked out at 79%.

As to `O=C(O)c1c[nH]c2cc(Cl)c(-c3ccccc3)cc12` [Example 3, 6-Chloro-5-phenyl-1H-indole-3-carboxylic acid], a half-maximal effect (EC50) was put at 459 nM and the Emax amounted to 82%.

In the case of `CC(C)(CO)c1ccc(-c2c(F)cc3[nH]cc(C(=O)O)c3c2F)cc1` [Example 26, 4,6-difluoro-5-[4-(1-hydroxy-2-methylpropan-2-yl)phenyl]-1H-indole-3-carboxylic acid], it took 124 nM to reach a half-maximal effect (EC50) and the Emax turned out to be 74%.

In the case of `CN1CCN(c2ccc(-c3cc4c(C(=O)O)n[nH]c4cc3Cl)cc2)CC1` [Example 106, 6-Chloro-5-(4-(4-methylpiperazin-1-yl)phenyl)-1H-indazole-3-carboxylic acid], the midpoint of the response, the EC50, lay at 73 nM and the Emax was found to be 94%.

The record behind these values is patent US9394285B2 (Pfizer Inc., priority 2013, dated 2016).
